Reference: PubChem BioAssay AID330 (DTP/NCI, 2004)
Where “and” joins values, the source holds several entries; their conditions need not be identical. Identical values can stand only once. Toxic doses and inconclusive results are not listed. Square brackets hold non-standard residues; d marks the D form. Peptide text beside a SMILES is read from it. Nle = CCCC[CH](N)C(=O)O

Tested on: P388 leukemia ip, CD2F1 mice, survival T/C
Test: NCI In Vivo Anticancer Drug Screen. Data for tumor model P388 Leukemia (intraperitoneal) in CD2F1 (CDF1) mice
Settings: endpoint: median survival time, higher = longer survival
In short: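 Mice carrying the transplanted tumor received test compound or vehicle. Survival was recorded in each group, and the value is the treated-group measurement divided by that of the vehicle-treated control group.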

CCOC(=O)CC1Cc2ccc3ccc(O)cc3c2C1=O (stereo not drawn)
T/C (dose: 12.5 mg/kg/injection, schedule: Q01DX009 (ip), vehicle: distilled water + Tween-80): 94 % of control
T/C (dose: 25.0 mg/kg/injection, schedule: Q01DX009 (ip), vehicle: distilled water + Tween-80): 95 % of control
T/C (dose: 50.0 mg/kg/injection, schedule: Q01DX009 (ip), vehicle: distilled water + Tween-80): 92 % of control
T/C (dose: 100.0 mg/kg/injection, schedule: Q01DX009 (ip), vehicle: distilled water + Tween-80): 86 % of control
T/C (dose: 200.0 mg/kg/injection, schedule: Q01DX009 (ip), vehicle: distilled water + Tween-80): 92 % of control

C1CN1c1nc(N2CC2)nc(N2CC2)n1
T/C (dose: 0.05 mg/kg/injection, schedule: Q01DX009 (ip), vehicle: saline): 111 % of control
T/C (dose: 0.13 mg/kg/injection, schedule: Q01DX009 (ip), vehicle: saline): 115 % of control
T/C (dose: 0.2 mg/kg/injection, schedule: Q01DX009 (ip), vehicle: saline): 159 % of control
T/C (dose: 0.25 mg/kg/injection, schedule: Q01DX009 (ip), vehicle: saline): 150 % of control and 169 % of control
T/C (dose: 0.4 mg/kg/injection, schedule: Q01DX009 (ip), vehicle: saline): 235 % of control
T/C (dose: 0.5 mg/kg/injection, schedule: Q01DX009 (ip), vehicle: saline): 106 % of control and 120 % of control and 246 % of control
T/C (dose: 1.0 mg/kg/injection, schedule: Q01DX009 (ip), vehicle: saline): 88 % of control

O=CCC1CC2CCCCN2O1 (stereo not drawn)
T/C (dose: 25.0 mg/kg/injection, schedule: Q04DX003 (ip), vehicle: saline with Tween-80): 102 % of control
T/C (dose: 50.0 mg/kg/injection, schedule: Q04DX003 (ip), vehicle: saline with Tween-80): 101 % of control
T/C (dose: 100.0 mg/kg/injection, schedule: Q04DX003 (ip), vehicle: saline with Tween-80): 108 % of control

CC1C2C=CC1C(c1c3ccc(=O)c(O)c-3oc3c(O)c(O)ccc13)C2C(=O)O (stereo not drawn)
T/C (dose: 60.0 mg/kg/injection, schedule: Q01DX005 (ip), vehicle: saline with Tween-80): 94 % of control
T/C (dose: 120.0 mg/kg/injection, schedule: Q01DX005 (ip), vehicle: saline with Tween-80): 87 % of control
T/C (dose: 240.0 mg/kg/injection, schedule: Q01DX005 (ip), vehicle: saline with Tween-80): 91 % of control

CC#Cc1ccc(-c2ccccc2)s1
T/C (dose: 1.0 mg/kg/injection, schedule: Q01DX005 (ip), vehicle: Klucel + Tween-80): 96 % of control
T/C (dose: 2.0 mg/kg/injection, schedule: Q01DX005 (ip), vehicle: Klucel + Tween-80): 98 % of control
T/C (dose: 4.0 mg/kg/injection, schedule: Q01DX005 (ip), vehicle: Klucel + Tween-80): 94 % of control
T/C (dose: 8.0 mg/kg/injection, schedule: Q01DX005 (ip), vehicle: Klucel + Tween-80): 93 % of control

CCCCC(N)C(=O)NC(CCSC)C(N)=O (stereo not drawn) (H-[Nle]-Met-NH2; configuration not given here)
T/C (dose: 50.0 mg/kg/injection, schedule: Q01DX005 (ip), vehicle: saline): 100 % of control
T/C (dose: 100.0 mg/kg/injection, schedule: Q01DX005 (ip), vehicle: saline): 105 % of control
T/C (dose: 200.0 mg/kg/injection, schedule: Q01DX005 (ip), vehicle: saline): 100 % of control

c1ccc(-c2nnc3ccccc3n2)cc1
T/C (dose: 25.0 mg/kg/injection, schedule: Q01DX009 (ip), vehicle: saline with Tween-80): 99 % of control
T/C (dose: 50.0 mg/kg/injection, schedule: Q01DX009 (ip), vehicle: saline with Tween-80): 98 % of control
T/C (dose: 100.0 mg/kg/injection, schedule: Q01DX009 (ip), vehicle: saline with Tween-80): 98 % of control
T/C (dose: 200.0 mg/kg/injection, schedule: Q01DX009 (ip), vehicle: saline with Tween-80): 93 % of control

CCOC(=O)CCN(CC)CC
T/C (dose: 88.0 mg/kg/injection, schedule: Q04DX003 (ip), vehicle: saline): 100 % of control
T/C (dose: 100.0 mg/kg/injection, schedule: Q01DX009 (ip), vehicle: saline): 116 % of control
T/C (dose: 132.0 mg/kg/injection, schedule: Q04DX003 (ip), vehicle: saline): 95 % of control
T/C (dose: 200.0 mg/kg/injection, schedule: Q01DX009 (ip), vehicle: saline): 111 % of control
T/C (dose: 200.0 mg/kg/injection, schedule: Q04DX003 (ip), vehicle: saline): 109 % of control
T/C (dose: 300.0 mg/kg/injection, schedule: Q04DX003 (ip), vehicle: saline): 109 % of control
T/C (dose: 400.0 mg/kg/injection, schedule: Q01DX009 (ip), vehicle: saline): 111 % of control
T/C (dose: 400.0 mg/kg/injection, schedule: Q04DX003 (ip), vehicle: saline): 100 % of control

COC1CC(N)C(OS(C)(=O)=O)C(C)O1 (stereo not drawn)
T/C (dose: 12.5 mg/kg/injection, schedule: Q04DX003 (ip), vehicle: water): 99 % of control
T/C (dose: 25.0 mg/kg/injection, schedule: Q04DX003 (ip), vehicle: water): 99 % of control
T/C (dose: 50.0 mg/kg/injection, schedule: Q04DX003 (ip), vehicle: water): 114 % of control
T/C (dose: 100.0 mg/kg/injection, schedule: Q04DX003 (ip), vehicle: water): 114 % of control
T/C (dose: 200.0 mg/kg/injection, schedule: Q04DX003 (ip), vehicle: water): 105 % of control

CC(C)CC(NC(=O)CNC(=O)CN)C(=O)O (stereo not drawn)
T/C (dose: 60.0 mg/kg/injection, schedule: Q01DX005 (ip), vehicle: saline): 102 % of control
T/C (dose: 120.0 mg/kg/injection, schedule: Q01DX005 (ip), vehicle: saline): 99 % of control
T/C (dose: 240.0 mg/kg/injection, schedule: Q01DX005 (ip), vehicle: saline): 106 % of control

Cc1ccc(S(=O)(=O)C2(Sc3ccccc3)SC2C(=O)c2ccccc2)cc1 (stereo not drawn)
T/C (dose: 50.0 mg/kg/injection, schedule: Q01DX009 (ip), vehicle: Klucel (hydroxypropylcellulose) (HPC)): 99 % of control
T/C (dose: 100.0 mg/kg/injection, schedule: Q01DX009 (ip), vehicle: Klucel (hydroxypropylcellulose) (HPC)): 105 % of control
T/C (dose: 200.0 mg/kg/injection, schedule: Q01DX009 (ip), vehicle: Klucel (hydroxypropylcellulose) (HPC)): 111 % of control

O=C(CCl)NC(Cc1ccc(N(CCCl)CCCl)cc1)C(=O)O (stereo not drawn)
T/C (dose: 0.25 mg/kg/injection, schedule: Q01DX009 (ip), vehicle: Klucel (hydroxypropylcellulose) (HPC)): 113 % of control and 96 % of control
T/C (dose: 0.5 mg/kg/injection, schedule: Q01DX009 (ip), vehicle: Klucel (hydroxypropylcellulose) (HPC)): 109 % of control and 115 % of control
T/C (dose: 1.0 mg/kg/injection, schedule: Q01DX009 (ip), vehicle: Klucel (hydroxypropylcellulose) (HPC)): 102 % of control and 115 % of control
T/C (dose: 2.0 mg/kg/injection, schedule: Q01DX001 (ip), vehicle: Klucel (hydroxypropylcellulose) (HPC)): 107 % of control
T/C (dose: 4.0 mg/kg/injection, schedule: Q01DX001 (ip), vehicle: Klucel (hydroxypropylcellulose) (HPC)): 108 % of control
T/C (dose: 8.0 mg/kg/injection, schedule: Q01DX001 (ip), vehicle: Klucel (hydroxypropylcellulose) (HPC)): 119 % of control
T/C (dose: 128.0 mg/kg/injection, schedule: Q01DX009 (ip), vehicle: Klucel (hydroxypropylcellulose) (HPC)): 166 % of control
T/C (dose: 256.0 mg/kg/injection, schedule: Q01DX009 (ip), vehicle: Klucel (hydroxypropylcellulose) (HPC)): 223 % of control

COC(=O)NC1C(C)OC(OC2C/C=C(/C)C3C=CC4C(OC5CC(OC6CCC(OC7CC(O)C(OC8CCC(O)C(C)O8)C(C)O7)C(C)O6)C(OC(C)=O)C(C)O5)C(C)CC(C)C4C3(C)/C(O)=C3/C(=O)OC4(CC(C=O)=CC(O)C4/C=C\2C)C3=O)CC1(C)[N+](=O)[O-] (stereo not drawn)
T/C (dose: 2.25 mg/kg/injection, schedule: Q01DX005 (iv), vehicle: water): 97 % of control
T/C (dose: 2.5 mg/kg/injection, schedule: Q01DX005 (ip), vehicle: water): 106 % of control and 120 % of control
T/C (dose: 3.06 mg/kg/injection, schedule: Q01DX005 (ip), vehicle: water): 121 % of control
T/C (dose: 3.35 mg/kg/injection, schedule: Q01DX005 (iv), vehicle: water): 96 % of control
T/C (dose: 4.49 mg/kg/injection, schedule: Q01DX005 (ip), vehicle: water): 121 % of control
T/C (dose: 5.0 mg/kg/injection, schedule: Q01DX005 (ip), vehicle: water): 121 % of control
T/C (dose: 5.0 mg/kg/injection, schedule: Q01DX005 (iv), vehicle: water): 95 % of control
T/C (dose: 6.7 mg/kg/injection, schedule: Q01DX005 (ip), vehicle: water): 118 % of control
T/C (dose: 7.47 mg/kg/injection, schedule: Q01DX005 (iv), vehicle: water): 97 % of control
T/C (dose: 10.0 mg/kg/injection, schedule: Q01DX005 (ip), vehicle: water): 121 % of control and 123 % of control and 124 % of control
T/C (dose: 11.14 mg/kg/injection, schedule: Q01DX005 (iv), vehicle: water): 96 % of control

O=C(CCCCO)c1nc2ccccc2s1
T/C (dose: 60.0 mg/kg/injection, schedule: Q01DX005 (ip), vehicle: Klucel (hydroxypropylcellulose) (HPC)): 98 % of control
T/C (dose: 120.0 mg/kg/injection, schedule: Q01DX005 (ip), vehicle: Klucel (hydroxypropylcellulose) (HPC)): 102 % of control
T/C (dose: 240.0 mg/kg/injection, schedule: Q01DX005 (ip), vehicle: Klucel (hydroxypropylcellulose) (HPC)): 95 % of control

O=C1NC(c2ccccc2)(c2ccccc2)C(=O)N1CN1CCN(CN2C(=O)NC(c3ccccc3)(c3ccccc3)C2=O)CC1
T/C (dose: 25.0 mg/kg/injection, schedule: Q01DX001 (ip), vehicle: saline with Tween-80): 100 % of control
T/C (dose: 50.0 mg/kg/injection, schedule: Q01DX001 (ip), vehicle: saline with Tween-80): 95 % of control
T/C (dose: 100.0 mg/kg/injection, schedule: Q01DX001 (ip), vehicle: saline with Tween-80): 90 % of control
